# In PubChem BioAssay (NCI):
#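 Compound exposure: 48 hours, 5 concentrations, 96-well plates. Here, GI50 denotes the concentration required for 50% inhibition of growth. TGI: concentration producing complete growth inhibition.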
# Key:
# Experiment in all cases: NCI-60 cell line screen, 48 h
# COLO 205 colon = test system: COLO 205 colon
# NCI-H460 lung = test system: NCI-H460 lung
# NCI-H226 lung = test system: NCI-H226 lung
# SN12C renal = test system: SN12C renal
# OVCAR-4 ovarian = test system: OVCAR-4 ovarian
# PC-3 prostate = test system: PC-3 prostate
# SF-295 CNS = test system: SF-295 CNS
# U251 CNS = test system: U251 CNS
# NCI-H522 lung = test system: NCI-H522 lung
# RPMI-8226 leukemia = test system: RPMI-8226 leukemia
# K-562 leukemia = test system: K-562 leukemia
# ACHN renal = test system: ACHN renal
# RXF 393 renal = test system: RXF 393 renal
# SK-MEL-2 melanoma = test system: SK-MEL-2 melanoma
# HS 578T breast = test system: HS 578T breast
# DU-145 prostate = test system: DU-145 prostate
# BT-549 breast = test system: BT-549 breast
# SK-MEL-5 melanoma = test system: SK-MEL-5 melanoma
# IGROV1 ovarian = test system: IGROV1 ovarian
# M14 melanoma = test system: M14 melanoma
# EKVX NSCLC = test system: EKVX NSCLC
# MDA-MB-231 breast = test system: MDA-MB-231 breast
# HT29 colon = test system: HT29 colon
# CAKI-1 renal = test system: CAKI-1 renal
# NCI-H23 lung = test system: NCI-H23 lung
# HCT-15 colon = test system: HCT-15 colon
# A549 NSCLC = test system: A549 NSCLC
# MDA-MB-435 = test system: MDA-MB-435
# HOP-92 NSCLC = test system: HOP-92 NSCLC
# UACC-257 melanoma = test system: UACC-257 melanoma
# MOLT-4 leukemia = test system: MOLT-4 leukemia
# OVCAR-8 ovarian = test system: OVCAR-8 ovarian
# MALME-3M melanoma = test system: MALME-3M melanoma
# TK-10 renal = test system: TK-10 renal
# NCI/ADR-RES ovarian = test system: NCI/ADR-RES ovarian
# OVCAR-3 ovarian = test system: OVCAR-3 ovarian
# 786-0 renal = test system: 786-0 renal
# HL-60(TB) leukemia = test system: HL-60(TB) leukemia
# SK-OV-3 ovarian = test system: SK-OV-3 ovarian
# HOP-62 NSCLC = test system: HOP-62 NSCLC
# OVCAR-5 ovarian = test system: OVCAR-5 ovarian
# SF-539 CNS = test system: SF-539 CNS
# UACC-62 melanoma = test system: UACC-62 melanoma
# MCF7 breast = test system: MCF7 breast
# SNB-19 CNS = test system: SNB-19 CNS
# UO-31 renal = test system: UO-31 renal
# A498 renal = test system: A498 renal
# SW-620 colon = test system: SW-620 colon
# T-47D breast = test system: T-47D breast
# SR leukemia = test system: SR leukemia
# HCT-116 colon = test system: HCT-116 colon
# KM12 colon = test system: KM12 colon
# SF-268 CNS = test system: SF-268 CNS
# SNB-75 CNS = test system: SNB-75 CNS
# SK-MEL-28 melanoma = test system: SK-MEL-28 melanoma
# HCC-2998 colon = test system: HCC-2998 colon
# CCRF-CEM leukemia = test system: CCRF-CEM leukemia
# LOX IMVI melanoma = test system: LOX IMVI melanoma
compound,measurement,setting,value
S=C(Nc1cc(Cl)c(Cl)cc1Cl)SCc1ccccc1,TGI,COLO 205 colon,> 100 µM
same,TGI,NCI-H460 lung,> 100 µM
same,TGI,NCI-H226 lung,42.4 µM
same,TGI,SN12C renal,> 100 µM
same,TGI,OVCAR-4 ovarian,65.3 µM
same,TGI,PC-3 prostate,> 100 µM
same,TGI,SF-295 CNS,42.6 µM
same,TGI,U251 CNS,52.7 µM
same,TGI,NCI-H522 lung,59.5 µM
same,TGI,RPMI-8226 leukemia,46.5 µM
same,TGI,K-562 leukemia,45.1 µM
same,TGI,ACHN renal,42.7 µM
same,TGI,RXF 393 renal,> 100 µM
same,TGI,SK-MEL-2 melanoma,> 100 µM
same,TGI,HS 578T breast,> 100 µM
same,TGI,DU-145 prostate,> 100 µM
same,TGI,BT-549 breast,65.8 µM
same,TGI,SK-MEL-5 melanoma,37.7 µM
same,TGI,IGROV1 ovarian,> 100 µM
same,TGI,M14 melanoma,> 100 µM
same,TGI,EKVX NSCLC,> 100 µM
same,TGI,MDA-MB-231 breast,29.6 µM
same,TGI,HT29 colon,43.7 µM
same,TGI,CAKI-1 renal,44 µM
same,TGI,NCI-H23 lung,45.3 µM
same,TGI,HCT-15 colon,32.6 µM
same,TGI,A549 NSCLC,> 100 µM
same,TGI,MDA-MB-435,38.6 µM
same,TGI,HOP-92 NSCLC,75.8 µM
same,TGI,UACC-257 melanoma,37.6 µM
same,TGI,MOLT-4 leukemia,76.4 µM
same,TGI,OVCAR-8 ovarian,51.5 µM
same,TGI,MALME-3M melanoma,59.3 µM
same,TGI,TK-10 renal,53.8 µM
same,TGI,NCI/ADR-RES ovarian,54.6 µM
same,TGI,OVCAR-3 ovarian,49.3 µM
same,TGI,786-0 renal,> 100 µM
same,TGI,HL-60(TB) leukemia,50.4 µM
same,TGI,SK-OV-3 ovarian,> 100 µM
same,TGI,HOP-62 NSCLC,56 µM
same,TGI,OVCAR-5 ovarian,46.5 µM
same,TGI,SF-539 CNS,48.3 µM
same,TGI,UACC-62 melanoma,> 100 µM
same,TGI,MCF7 breast,> 100 µM
same,TGI,SNB-19 CNS,96.9 µM
same,TGI,UO-31 renal,> 100 µM
same,TGI,A498 renal,82.5 µM
same,TGI,SW-620 colon,> 100 µM
same,TGI,T-47D breast,> 100 µM
same,TGI,SR leukemia,10.8 µM
same,TGI,HCT-116 colon,83 µM
same,TGI,KM12 colon,36.6 µM
same,TGI,SF-268 CNS,> 100 µM
same,TGI,SNB-75 CNS,> 100 µM
same,TGI,SK-MEL-28 melanoma,> 100 µM
CSc1ccccc1C#Cc1ccccc1C#CCCCCO,GI50,COLO 205 colon,15.8 µM
same,TGI,COLO 205 colon,31.5 µM
same,GI50,NCI-H460 lung,8.64 µM
same,TGI,NCI-H460 lung,22.2 µM
same,GI50,NCI-H226 lung,19 µM
same,TGI,NCI-H226 lung,43.6 µM
same,GI50,SN12C renal,16 µM
same,TGI,SN12C renal,30.7 µM
same,GI50,OVCAR-4 ovarian,17.7 µM
same,TGI,OVCAR-4 ovarian,37.3 µM
same,GI50,PC-3 prostate,16.2 µM
same,TGI,PC-3 prostate,38 µM
same,GI50,SF-295 CNS,1.54 µM
same,TGI,SF-295 CNS,6.3 µM
same,GI50,HCC-2998 colon,10 µM
same,TGI,HCC-2998 colon,22.9 µM
same,GI50,CCRF-CEM leukemia,10.3 µM
same,TGI,CCRF-CEM leukemia,46.5 µM
same,GI50,U251 CNS,10.8 µM
same,TGI,U251 CNS,22.7 µM
same,GI50,NCI-H522 lung,14.2 µM
same,TGI,NCI-H522 lung,29.4 µM
same,GI50,RPMI-8226 leukemia,6.79 µM
same,TGI,RPMI-8226 leukemia,46.6 µM
same,GI50,K-562 leukemia,6.19 µM
same,TGI,K-562 leukemia,54.4 µM
same,GI50,ACHN renal,11.3 µM
same,TGI,ACHN renal,23.4 µM
same,GI50,RXF 393 renal,3.86 µM
same,TGI,RXF 393 renal,17.5 µM
same,GI50,SK-MEL-2 melanoma,17.9 µM
same,TGI,SK-MEL-2 melanoma,35.4 µM
same,GI50,HS 578T breast,7.62 µM
same,TGI,HS 578T breast,32.3 µM
same,GI50,DU-145 prostate,4.73 µM
same,TGI,DU-145 prostate,18 µM
same,GI50,BT-549 breast,13.3 µM
same,TGI,BT-549 breast,26.6 µM
same,GI50,SK-MEL-5 melanoma,14 µM
same,TGI,SK-MEL-5 melanoma,27.6 µM
same,GI50,IGROV1 ovarian,14 µM
same,TGI,IGROV1 ovarian,27.5 µM
same,GI50,EKVX NSCLC,16.9 µM
same,TGI,EKVX NSCLC,34.4 µM
same,GI50,MDA-MB-231 breast,2.57 µM
same,TGI,MDA-MB-231 breast,13.2 µM
same,GI50,HT29 colon,5.46 µM
same,TGI,HT29 colon,19.2 µM
same,GI50,CAKI-1 renal,7.13 µM
same,TGI,CAKI-1 renal,20.5 µM
same,GI50,NCI-H23 lung,15.7 µM
same,TGI,NCI-H23 lung,33 µM
same,GI50,HCT-15 colon,3.85 µM
same,TGI,HCT-15 colon,15.9 µM
same,GI50,A549 NSCLC,12.6 µM
same,TGI,A549 NSCLC,27.1 µM
same,GI50,MDA-MB-435,3.9 µM
same,TGI,MDA-MB-435,15.2 µM
same,GI50,HOP-92 NSCLC,9.76 µM
same,TGI,HOP-92 NSCLC,25.1 µM
same,GI50,UACC-257 melanoma,18.5 µM
same,TGI,UACC-257 melanoma,34.2 µM
same,GI50,MOLT-4 leukemia,7.32 µM
same,TGI,MOLT-4 leukemia,29.3 µM
same,GI50,OVCAR-8 ovarian,18.7 µM
same,TGI,OVCAR-8 ovarian,41.7 µM
same,GI50,MALME-3M melanoma,15.2 µM
same,TGI,MALME-3M melanoma,36.5 µM
same,GI50,TK-10 renal,13.7 µM
same,TGI,TK-10 renal,30.4 µM
same,GI50,NCI/ADR-RES ovarian,11.5 µM
same,TGI,NCI/ADR-RES ovarian,31.1 µM
same,GI50,OVCAR-3 ovarian,14.7 µM
same,TGI,OVCAR-3 ovarian,28.7 µM
same,GI50,786-0 renal,11 µM
same,TGI,786-0 renal,26.6 µM
same,GI50,SK-OV-3 ovarian,15.8 µM
same,TGI,SK-OV-3 ovarian,30.1 µM
same,GI50,HOP-62 NSCLC,24.9 µM
same,TGI,HOP-62 NSCLC,> 100 µM
same,GI50,OVCAR-5 ovarian,13.6 µM
same,TGI,OVCAR-5 ovarian,32.2 µM
same,GI50,SF-539 CNS,13.5 µM
same,TGI,SF-539 CNS,27.2 µM
same,GI50,UACC-62 melanoma,13 µM
same,TGI,UACC-62 melanoma,25.7 µM
same,GI50,MCF7 breast,19.1 µM
same,TGI,MCF7 breast,39.2 µM
same,GI50,SNB-19 CNS,17.8 µM
same,TGI,SNB-19 CNS,33.5 µM
same,GI50,UO-31 renal,12.6 µM
same,TGI,UO-31 renal,25.4 µM
same,GI50,A498 renal,2.24 µM
same,TGI,A498 renal,14.3 µM
same,GI50,SW-620 colon,11 µM
same,TGI,SW-620 colon,26.2 µM
same,GI50,T-47D breast,15 µM
same,TGI,T-47D breast,34.5 µM
same,GI50,SR leukemia,3.54 µM
same,TGI,SR leukemia,17.5 µM
same,GI50,HCT-116 colon,14 µM
same,TGI,HCT-116 colon,31.4 µM
same,GI50,KM12 colon,3.39 µM
same,TGI,KM12 colon,16.9 µM
same,GI50,SF-268 CNS,13.7 µM
same,TGI,SF-268 CNS,28.4 µM
same,GI50,LOX IMVI melanoma,5.87 µM
same,TGI,LOX IMVI melanoma,19.2 µM
same,GI50,SNB-75 CNS,13.8 µM
same,TGI,SNB-75 CNS,28 µM
same,GI50,SK-MEL-28 melanoma,15.1 µM
same,TGI,SK-MEL-28 melanoma,31.2 µM
